This is an account of results in US10786484B2, “Mono- or di-substituted indole derivatives as dengue viral replication inhibitors” (Janssen Pharmaceuticals, Inc., priority 2015, dated 2020).

Some results are limits rather than exact numbers.

Data set [1] is described as follows: in vitro. The settings on record: African green monkey.
Data set [2] deals with DENV-2 16681 strain labeled with eGFP. Briefly: DENV-2 antiviral assay (eGFP fluorescence read-out in Vero cells). In kind it is cell-based, Dengue virus. The settings on record: DENV-2 16681 eGFP, MOI 0.5, 3 days. The protocol:
The antiviral activity of all the compounds of the invention was tested against the DENV-2 16681 strain which was labeled with enhanced green fluorescent protein (eGPF). The culture medium consists of minimal essential medium supplemented with 2% of heat-inactivated fetal calf serum, 0.04% gentamycin (50 mg/mL) and 2 mM of L-glutamine. Vero cells, obtained from ECACC, were suspended in culture medium and 25 μL was added to 384-well plates (2500 cells/well), which already contain the antiviral compounds. Typically, these plates contain a 5-fold serial dilution of 9 dilution steps of the test compound at 200 times the final concentration in 100% DMSO (200 nL). […] Finally, each plate contains wells which are assigned as virus controls (containing cells and virus in the absence of compound), cell controls (containing cells in the absence of virus and compound) and medium controls (containing medium in the absence of cells, virus and compounds). To the wells assigned as medium control, 25 μL of culture medium was added instead of Vero cells. Once the cells were added to the plates, the plates were incubated for 30 minutes at room temperature to allow the cells to distribute evenly within the wells. Next, the plates were incubated in a fully humidified incubator (37° C., 5% CO2) until the next day. Then, DENV-2 strain 16681, labeled with eGFP, was added at a multiplicity of infection (MOI) of 0.5. Therefore, 15 μL of virus suspension was added to all the wells containing test compound and to the wells assigned as virus control. In parallel, 15 μL of culture medium was added to the medium and cell controls. Next, the plates were incubated for 3 days in a fully humidified incubator (37° C., 5% CO2). At the day of the read out, the eGFP fluorescence was measured using an automated fluorescence microscope at 488 nm (blue laser). Using an in-house LIMS system, inhibition dose response curves for each compound were calculated and the half maximal effective concentration (EC50) was determined. Therefore, the percent inhibition (I) for every test concentration is calculated using the following formula: I=100*([…])/(SVC−SCC); ST, SCC and SVC are the amount of eGFP signal in the test compound, cell control and virus control wells, respectively. The EC50 represents the concentration of a compound at which the virus replication is inhibited with 50%, as measured by a 50% reduction of the eGFP fluorescent intensity compared to the virus control. The EC50 is calculated using linear interpolation (Table 1).

Data set [3] concerns DENV-3 strain H87. Briefly: Tetravalent RT-qPCR assay Protocol A, serotype 3. In kind it is cell-based. The following applies: Dengue virus, DENV3, 72 h; RT-qPCR serotype 3 H87, Vero cells, day 3. As to the method:
(§1) The antiviral activity of the compounds of the invention was tested against DENV-1 strain TC974#666 (NCPV), DENV-2 strain 16681, DENV-3 strain H87 (NCPV) and DENV-4 strains H241 (NCPV) and EDEN (SG/06K2270DK1/2005; GenBank accession number QG398256) in a RT-qPCR assay. Therefore, Vero cells were infected with either DENV-1, or -2, or -3, or -4 in the presence or absence of test compounds. At day 3 post-infection, the cells were lysed and cell lysates were used to prepare cDNA of both a viral target (the 3′UTR of DENV; Table 2) and a cellular reference gene (β-actin, Table 2). Subsequently, a duplex real time PCR was performed on a Lightcycler480 instrument. The generated Cp value is inversely proportional to the amount of RNA expression of these targets. Inhibition of DENV replication by a test compound results in a shift of Cp's for the 3′UTR gene. On the other hand, if a test compound is toxic to the cells, a similar effect on β-actin expression will be observed. The comparative ΔΔCp method is used to calculate EC50, which is based on the relative gene expression of the target gene (3′UTR) normalized with the cellular housekeeping gene (β-actin). In addition, CC50 values are determined based on the Cp values acquired for the housekeeping gene β-actin.
(§2) The culture medium consisted of minimal essential medium supplemented with 2% of heat-inactivated fetal calf serum, 0.04% gentamycin (50 mg/mL) and 2 mM of L-glutamine. Vero cells, obtained from ECACC, were suspended in culture medium and 75 μL/well was added in 96-well plates (10000 cells/well), which already contain the antiviral compounds. […] In addition, each plate contains wells which are assigned as virus controls (containing cells and virus in the absence of compound) and cell controls (containing cells in the absence of virus and compound). Once the cells were added in the plates, the plates were incubated in a fully humidified incubator (37° C., 5% CO2) until the next day. Dengue viruses serotype-1, 2, 3 and 4 were diluted in order to obtain a Cp of ˜22-24 in the assay. Therefore, 25 μL of virus suspension, was added to all the wells containing test compound and to the wells assigned as virus control. In parallel, 25 μL of culture medium was added to the cell controls. Next, the plates were incubated for 3 days in a fully humidified incubator (37° C., 5% CO2). After 3 days, the supernatant was removed from the wells and the cells were washed twice with ice-cold PBS (−100 μL). The cell pellets within the 96-well plates were stored at −80° C. for at least 1 day. Next, RNA was extracted using the Cells-to-CT™ lysis kit, according to the manufacturer's guideline (Life Technologies). The cell lysates can be stored at −80° C. or immediately used in the reverse transcription step.
(§3) In preparation of the reverse transcription step, mix A (table 3A) was prepared and 7.57 μL/well was dispensed in a 96-well plate. After addition of 5 μL of the cell lysates, a five minute denaturation step at 75° C. was performed (table 3B). Afterwards, 7.43 μL of mix B was added (table 3C) and the reverse transcription step was initiated (table 3D) to generate cDNA.
(§4) Finally, a RT-qPCR mix was prepared, mix C (table 4A), and 22.02 μL/well was dispensed in 96-well LightCycler qPCR plates to which 3 μL of cDNA was added and the qPCR was performed according to the conditions in table 4B on a LightCycler 480.
(§5) Using the LightCycler software and an in-house LIMS system, dose response curves for each compound were calculated and the half maximal effective concentration (EC50) and the half maximal cytotoxic concentration (CC50) were determined (Tables 5-8).

The subject of data set [4] is DENV-1 strain TC974#666. Briefly: Tetravalent RT-qPCR assay Protocol A, serotype 1. The settings on record: Dengue virus, DENV1, 72 h; RT-qPCR serotype 1 TC974#666, Vero cells, day 3. In kind it is cell-based. The protocol: as §1, §2, §3, §4, §5
Data set [5] relates to DENV-2 strain 16681. Kind of data set: Tetravalent RT-qPCR assay Protocol A, serotype 2. In kind it is cell-based. The settings on record: Dengue virus, DENV2, 72 h; RT-qPCR serotype 2 16681, Vero cells, day 3. The protocol: as §1, §2, §3, §4, §5
The subject of data set [6] is DENV-4 strain EDEN (SG/06K2270DK1/2005). Kind of data set: Tetravalent RT-qPCR assay Protocol A, serotype 4 EDEN. In kind it is cell-based. The following applies: Dengue virus, DENV4, 72 h; RT-qPCR serotype 4 EDEN, Vero cells, day 3. As to the method: as §1, §2, §3, §4, §5
In data set [7] the test system is DENV-4 strain H241. Briefly: Tetravalent RT-qPCR assay Protocol A, serotype 4 H241. In kind it is cell-based. The following applies: Dengue virus, DENV4, 72 h; RT-qPCR serotype 4 H241, Vero cells, day 3. As to the method:
as §1, §2, §3, §4, §5

Data set [8] can be described thus: in vitro. In kind it is cell-based. The settings on record: African green monkey, CC50. As to the method: as §1, §2, §5
The test system of data set [9] is Vero cells. The settings on record: African green monkey.

In data set [1], `COc1cc(NC(C(=O)c2c[nH]c3c(C)cc(OC(F)(F)F)cc23)c2ccc(F)cc2OCCO)cc(S(C)(=O)=O)c1` (racemic) [Compound 12, 2-(4-fluoro-2-(2-hydroxyethoxy)phenyl)-2-((3-methoxy-5-(methylsulfonyl)phenyl)amino)-1-(7-methyl-5-(trifluoromethoxy)-1H-indol-3-yl)ethanone] registered a CC50 of 3700 nM. For the same molecule, the EC50 in data set [2] (Dengue virus, DENV2, Vero, 72 h) worked out at 0.22 nM.

On to `COc1cc(NC(C(=O)c2c[nH]c3cc(F)ccc23)c2ccc(F)cc2OCCO)cc(S(C)(=O)=O)c1` (single isomer, unassigned) [Compound 1A, 1-(6-fluoro-1H-indol-3-yl)-2-(4-fluoro-2-(2-hydroxyethoxy)phenyl)-2-((3-methoxy-5-(methylsulfonyl)phenyl)amino)ethanone], for which the EC50 turned out to be 68 nM in data set [3]; 8.5 nM in data set [4]; 1.1 nM in [5]; 3.6 nM in data set [6]; 290 nM in data set [7]; 0.78 nM in [2]. Further, in data set [1], the CC50 was 8600 nM.

In the case of `COc1cc(NC(C(=O)c2c[nH]c3cc(Cl)ccc23)c2ccc(F)cc2OCCO)cc(S(C)(=O)=O)c1` (single isomer, unassigned) [Compound 2A, 1-(6-chloro-1H-indol-3-yl)-2-(4-fluoro-2-(2-hydroxyethoxy)phenyl)-2-((3-methoxy-5-(methylsulfonyl)phenyl)amino)-ethanone], the EC50 in data set [3] was 48 nM; in [4], 2.8 nM; in [5], 0.4 nM; in [6], 2.3 nM; in data set [7], 170 nM; in data set [2], 0.32 nM. Moreover, in data set [8], the CC50 at 3 days is 4800 nM. Besides, the CC50 in data set [9] amounted to 4900 nM.

With `COc1cc(NC(C(=O)c2c[nH]c3cc(OC)c(C)cc23)c2ccc(F)cc2OCCO)cc(S(C)(=O)=O)c1` (single isomer, unassigned) [Compound 6A, 2-(4-fluoro-2-(2-hydroxyethoxy)phenyl)-2-((3-methoxy-5-(methylsulfonyl)phenyl)amino)-1-(6-methoxy-5-methyl-1H-indol-3-yl)ethanone], the EC50 was determined as 43 nM in data set [3]; 3.5 nM in data set [4]; 0.84 nM in data set [5]; 3.4 nM in [6]; 110 nM in [7]; 0.47 nM in data set [2]. Also, the CC50 in data set [9] was found to be 5600 nM.

For `COc1cc(NC(C(=O)c2c[nH]c3cc(F)c(C)cc23)c2ccc(F)cc2OCCO)cc(S(C)(=O)=O)c1` (single isomer, unassigned) [Compound 7A, 2-(4-fluoro-2-(2-hydroxyethoxy)phenyl)-1-(6-fluoro-5-methyl-1H-indol-3-yl)-2-((3-methoxy-5-(methylsulfonyl)phenyl)amino)ethanone], the EC50 came to 20 nM in [3]; 1.3 nM in [4]; 0.77 nM in data set [5]; 120 nM in data set [7]; 0.54 nM in [2]. This molecule came in with a CC50 at 3 days in data set [8] greater than 2400 nM. In addition, the CC50 in [9] worked out at 3100 nM.

For the molecule `COc1cc(NC(C(=O)c2c[nH]c3c(C)cc(Cl)cc23)c2ccc(F)cc2OCCO)cc(S(C)(=O)=O)c1` (single isomer, unassigned) [Compound 9A, 1-(5-chloro-7-methyl-1H-indol-3-yl)-2-(4-fluoro-2-(2-hydroxyethoxy)phenyl)-2-((3-methoxy-5-(methylsulfonyl)phenyl)amino)ethanone], the EC50 in data set [3] was 16 nM; in data set [4] it was 1.4 nM; in data set [5], 0.61 nM; in data set [7], 110 nM; in data set [2], 0.39 nM. This molecule also yielded a CC50 at 3 days in data set [8] greater than 2500 nM. The CC50 in data set [9] came out at 3200 nM.

In the case of `COc1cc(NC(C(=O)c2c[nH]c3ccc(OC(F)(F)F)cc23)c2ccc(F)cc2OCCO)cc(S(C)(=O)=O)c1` (single isomer, unassigned) [Compound 10B, 2-(4-fluoro-2-(2-hydroxyethoxy)phenyl)-2-((3-methoxy-5-(methylsulfonyl)phenyl)amino)-1-(5-(trifluoromethoxy)-1H-indol-3-yl)ethanone], the EC50 in [3] was 2.1 nM; in data set [4] it was 0.2 nM; in [5] it was 0.057 nM; in data set [7], 12 nM; in data set [2], 0.12 nM. The molecule also yielded a CC50 at 3 days in [8] greater than 2500 nM. Moreover, in data set [9], the CC50 turned out to be 2600 nM.

Consider `COc1cc(NC(C(=O)c2c[nH]c3c(C)cc(OC(F)(F)F)cc23)c2ccc(F)cc2OCCO)cc(S(C)(=O)=O)c1` (single isomer, unassigned) [Compound 12A, 2-(4-fluoro-2-(2-hydroxyethoxy)phenyl)-2-((3-methoxy-5-(methylsulfonyl)phenyl)amino)-1-(7-methyl-5-(trifluoromethoxy)-1H-indol-3-yl)ethanone], for which the EC50 is 3.2 nM in data set [3]; 0.2 nM in [4]; 0.075 nM in data set [5]; 14 nM in data set [7]; 0.099 nM in data set [2]. In [8], this molecule displayed a CC50 at 3 days greater than 1000 nM. The CC50 in data set [9] turned out to be 2200 nM.
